Test [1] has as its system serum cholesterol. The test can be described thus: Serum cholesterol (modified Liebermann-Burchard reaction) in mice. In kind it is in vivo, male CF1 mice. The following applies: for response vs control in vivo at 20 mg/kg: Mus musculus, 20 mg./kg./day intraparenterally, male CF1 mice; for Serum cholesterol, % of Control, Day 9 / Serum cholesterol, % of Control, Day 16: 8 mg./kg/day, procedure of Example 1. As to the method:
(§1) For determining hypolipidemic activity, representative compounds of this invention were suspended in an aqueous 1% carboxymethylcellulose solution and tested at 20 mg./kg./ day administered intraparenterally to male CF1 mice (~25 g.). Six animals were used for each test. On days 9 and 16, blood was collected by tail vein bleeding and the serum separated by centrifugation for three minutes. Serum cholesterol levels were determined by a modified Liebermann-Burchard reaction. Serum triglyceride levels were also determined at 16 days using a Fisher-Hycel Triglyceride Test Kit.
(§2) The procedure of Example 1 was repeated with octade-cylamine and N,N-dimethyl-n-octadecylamine at a dosage of 8 mg./kg/ day.

The test system of test [2] is serum triglyceride. Description: Serum triglyceride (Fisher-Hycel Triglyceride Test Kit) in mice. It is filed as in vivo, male CF1 mice. To be noted: Mus musculus, 384 h, Day 16; for response vs control in vivo at 20 mg/kg: 20 mg./kg./day intraparenterally; for response vs control in vivo at 8 mg/kg: 8 mg./kg/day, procedure of Example 1. As to the method: as §1, §2
The subject of test [3] is serum cholesterol. The test can be described thus: Serum cholesterol (modified Liebermann-Burchard reaction) in mice. It is filed as in vivo. To be noted: Mus musculus, clofibrate at its therapeutic dose of 150 mg., male CF1 mice.
The conditions of test [4]: 2.5 mg/kg in mice; cited from earlier work.
For test [5], the system named is ATP dependent citrate lyase. The following applies: in vivo; cited from earlier work.
In test [6] the test system is acetyl CoA synthetase. To be noted: in vivo; cited from earlier work.
For test [7], the system named is phosphatidate phosphohydrolase. The following applies: in vivo; cited from earlier work.
Test [8] relates to cholesterol excretion. To be noted: mouse, in vivo; cited from earlier work.
The mark [9] stands for this setting: 216 h, Day 9, read-out: Serum Cholesterol, % of Control, Day 9.
[10] abbreviates: 384 h, Day 16, read-out: Serum Cholesterol, % of Control, Day 16.

Where two headings read alike, the source gives them in different places.

Regarding `CCCCCCCCCCCCCN` [tridecylamine], the response vs control in vivo at 20 mg/kg in test [1] (setting [9]) turned out to be 69 ± 5%; in test [1] (setting [10]), 67 ± 5%; in test [2] (male CF1 mice) it was 73 ± 7%.

Take `CCCCCCCCCCCCCCN` [1-tetradecylamine]: the response vs control in vivo at 20 mg/kg in test [1] (setting [9]) worked out at 50 ± 4%; in test [1] (setting [10]), 34 ± 3%; in test [2] (male CF1 mice), 54 ± 6%.

With `CCOC(=O)C(C)(C)Oc1ccc(Cl)cc1` [clofibrate], the response vs control in vivo at 150 mg was 75 ± 5% in test [2] (clofibrate at its therapeutic dose of 150 mg., male CF1 mice); 88 ± 7% in test [3] (setting [9]); 87 ± 5% in test [3] (setting [10]).

For the compound `CCCCCCCCCCCCCCCCCCN` [octadecylamine], the “Serum cholesterol, % of Control, Day 9” value in test [1] (Day 9) is 63 ± 3 % of Control. Besides, the “Serum cholesterol, % of Control, Day 16” value in test [1] (Day 16) is reported as 57 ± 4 % of Control. In addition, the response vs control in vivo at 20 mg/kg in test [1] (setting [9]) came to 72 ± 5%; in test [1] (setting [10]), 64 ± 4%; in test [2] (male CF1 mice), 56 ± 4%. The compound further yielded a response vs control in vivo at 8 mg/kg in test [2] of 60 ± 5%.

Regarding `CCCCCCCCCCN` [decylamine], the values for the response vs control in vivo at 20 mg/kg in test [1] (setting [9]), in test [1] (setting [10]) and in test [2] (male CF1 mice) were 48 ± 4%, 38 ± 5% and 59 ± 6%, respectively.

For “tetrakis-u-(trimethylamine-borane carboxyato) bis(trimethylaminecarboxyborane)-dicopper (II)”, the “hypolipidemic activity” value in test [4] was “potent hypolipidemic agent”. For the same compound, the “ATP dependent citrate lyase” value in test [5] is recorded as “lower”. Further, in test [6], the “acetyl CoA synthetase” value was “lower”. For the same compound, the “phosphatidate phosphohydrolase” value in test [7] is recorded as “lower”. Also, the “cholesterol excretion from the body” value in test [8] is recorded as “accelerate cholesterol excretion from the body”.

Take `CCCCCCCCCCCCN` [dodecylamine]: the response vs control in vivo at 20 mg/kg in test [1] (setting [9]) is 63 ± 6%; in test [1] (setting [10]) it was 61 ± 5%; in test [2] (male CF1 mice), 64 ± 4%.

In the case of `CCCCCCCCCCCN` [undecylamine], the response vs control in vivo at 20 mg/kg in test [1] (setting [9]) worked out at 61 ± 5%; in test [1] (setting [10]), 57 ± 6%; in test [2] (male CF1 mice), 66 ± 5%.

As for `CCCCCCCCCCCCCCCCCCN(C)C` [N,N-dimethyl-n-octadecylamine], the “Serum cholesterol, % of Control, Day 9” value in test [1] (Day 9) is recorded as 91 ± 5 % of Control. Moreover, the “Serum cholesterol, % of Control, Day 16” value in test [1] (Day 16) was 79 ± 5 % of Control. Moreover, the response vs control in vivo at 20 mg/kg in test [1] (setting [9]) is 76 ± 6%; in test [1] (setting [10]), 61 ± 5%; in test [2] (male CF1 mice), 56 ± 3%. Further, in test [2], the response vs control in vivo at 8 mg/kg was found to be 84 ± 6%.

As for `CCCCCCCCCCCCCCCCCCNC` [N-methyloctadecylamine], the figures for the response vs control in vivo at 20 mg/kg in test [1] (setting [9]), in test [1] (setting [10]) and in test [2] (male CF1 mice) were 51 ± 5%, 44 ± 4% and 64 ± 6%, respectively.

Turning to `CCCCCCCCCCCCCCCCN` [1-hexadecylamine], the response vs control in vivo at 20 mg/kg in test [1] (setting [9]) was 39 ± 5%; in test [1] (setting [10]) it was 35 ± 4%; in test [2] (male CF1 mice) it was 63 ± 6%.
